Converted amounts (≈) assume the structure as drawn. The source made the active and inactive calls. The rule behind the calls is not given here.
Legend:
A549 = experiment: Antiproliferative activity against human A549 cells incubated for 168 hrs by SRB method; format: functional, cell-based; details: A549, 168 h
A2780 [1] = experiment: Antitumor activity against human A2780 cells xenografted in BALB/c nude mouse model assessed as reduction in UQCRC2 level at 100 mg/kg, po by immunoblotting analysis; format: functional, organism-based
A2780 [2] = experiment: Induction of apoptosis in human A2780 cells assessed as necrotic cells at 200 nM incubated for 96 hrs by Annexin-V/FITC and PI staining based flow cytometry analysis (reference value: 2.07%); format: functional
A2780 [3] = experiment: Inhibition of MT-ND4L expression in human A2780 cells at 100 nM incubated for 12 hrs by RNA sequencing analysis; format: functional, cell-based
[4] = Inhibition of ND1 transcript level in human A2780 cells at 500 nM measured after 12 hrs by RT-qPCR analysis relative to control; format: functional
A2780 [5] = experiment: Inhibition of mitochondrial transcript in human A2780 cells by RT-qPCR analysis; format: functional, cell-based; details: dose 0.01-1 µM
Cytochrome P450 2C19 = Cytochrome P450 2C19 (Homo sapiens, UniProt P33261); experiment: Inhibition of CYP2C19 (unknown origin) using S-mephenytoin as substrate in presence of NADPH by LC/MS/MS analysis; format: ADME
Cytochrome P450 2C19, sequence (P33261 whole entry): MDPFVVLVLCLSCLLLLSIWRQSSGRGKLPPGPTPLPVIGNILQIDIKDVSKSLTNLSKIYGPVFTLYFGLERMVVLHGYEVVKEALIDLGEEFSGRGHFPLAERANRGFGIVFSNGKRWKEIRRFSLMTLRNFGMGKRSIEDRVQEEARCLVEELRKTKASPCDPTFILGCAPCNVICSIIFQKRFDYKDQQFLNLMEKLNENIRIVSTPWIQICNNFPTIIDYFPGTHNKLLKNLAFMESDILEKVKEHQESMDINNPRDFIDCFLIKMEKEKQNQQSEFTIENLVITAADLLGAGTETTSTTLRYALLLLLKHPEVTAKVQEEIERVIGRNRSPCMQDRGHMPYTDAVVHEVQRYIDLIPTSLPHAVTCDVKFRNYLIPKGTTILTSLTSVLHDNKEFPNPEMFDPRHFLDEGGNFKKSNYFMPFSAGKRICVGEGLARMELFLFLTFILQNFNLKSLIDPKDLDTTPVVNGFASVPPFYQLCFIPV

A2780 [6] = experiment: Effect on ATP5A level in human A2780 cells at upto 500 nM by Western blot analysis; format: functional, cell-based
A2780 [7] = experiment: Induction of apoptosis in human A2780 cells assessed as early apoptotic cells at 50 nM incubated for 96 hrs by Annexin-V/FITC and PI staining based flow cytometry analysis (reference value: 14.14%); format: functional
A2780 [8] = experiment: Inhibition of mitochondrial transcript in human A2780 cells incubated for 12 hrs followed by compound removal and measured after 12 hrs by RT-qPCR analysis; format: functional, cell-based
[9] = Toxicity in Balb/c mouse assessed as effect on body weight loss at 50 to 100 mg/kg, po measured after 27 days; format: organism-based; details: in vivo, 648 h, dose 50-100 mg/kg, time 27 day
A2780 [10] = experiment: Inhibition of colony formation in human A2780 cells assessed as decrease in colony quantity at 10 nM incubated for 14 days by crystal violet staining based analysis; format: functional, cell-based; details: time 14.0 day
MDA-MB-231 = experiment: Antiproliferative activity against human MDA-MB-231 cells incubated for 168 hrs by SRB method; format: functional, cell-based; details: MDA-MB-231, 168 h
[11] = Oral bioavailability in ICR mouse at 10 mg/kg measured upto 24 hrs by LC-MS/MS analysis; format: ADME, organism-based; details: in vivo
[12] = Cmax in ICR mouse at 1 mg/kg, iv measured upto 24 hrs by LC-MS/MS analysis; format: ADME, organism-based; set-up: time < 24 hrs, dose 1 mg/kg, route iv; details: in vivo
[13] = Efflux ratio of apparent permeability across basolateral to apical side over apical to basolateral side in human Caco2 cells at 3 uM incubated for 2 hrs by LC-MS/MS analysis; format: ADME, cell-based; details: Caco-2
Cytochrome P450 3A4 [14] = target: T1, Cytochrome P450 3A4 (Homo sapiens, UniProt P08684); experiment: Inhibition of […] (unknown origin) using midazolam as substrate in presence of NADPH by LC/MS/MS analysis; format: ADME
T1 sequence (P08684 whole entry): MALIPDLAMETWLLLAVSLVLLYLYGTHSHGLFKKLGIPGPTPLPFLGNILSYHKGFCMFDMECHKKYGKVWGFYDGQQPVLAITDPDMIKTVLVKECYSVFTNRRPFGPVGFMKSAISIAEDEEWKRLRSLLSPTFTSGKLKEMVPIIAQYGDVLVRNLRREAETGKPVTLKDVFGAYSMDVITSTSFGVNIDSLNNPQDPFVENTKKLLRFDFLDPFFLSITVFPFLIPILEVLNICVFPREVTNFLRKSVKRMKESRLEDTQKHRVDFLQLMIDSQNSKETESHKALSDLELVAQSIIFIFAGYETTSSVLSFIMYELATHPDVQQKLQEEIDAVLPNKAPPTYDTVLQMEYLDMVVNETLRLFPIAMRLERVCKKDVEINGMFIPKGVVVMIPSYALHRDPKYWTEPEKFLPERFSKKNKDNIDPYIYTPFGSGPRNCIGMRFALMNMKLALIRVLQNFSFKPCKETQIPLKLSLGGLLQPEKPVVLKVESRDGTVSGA

[15] = Half life in ICR mouse at 1 mg/kg, iv measured upto 24 hrs by LC-MS/MS analysis; format: ADME, organism-based; details: in vivo
A2780 [16] = experiment: Inhibition of MT-ATP8 expression in human A2780 cells at 100 nM incubated for 12 hrs by RNA sequencing analysis; format: functional, cell-based
A2780 [17] = experiment: Antiproliferative activity against human A2780 cells incubated for 168 hrs by SRB method; format: functional, cell-based; details: A2780, 168 h
A2780 [18] = experiment: Inhibition of mitochondrial transcript in human A2780 cells incubated for 12 hrs followed by compound removal and measured after 24 hrs by RT-qPCR analysis; format: functional, cell-based
[19] = AUC (0 to infinity) in ICR mouse at 10 mg/kg, po measured upto 24 hrs by LC-MS/MS analysis; format: ADME, organism-based; set-up: time < 24 hrs, dose 10 mg/kg, route po; details: in vivo
HeLa = experiment: Antiproliferative activity against human HeLa cells incubated for 168 hrs by SRB method; format: functional, cell-based
A2780 [20] = experiment: Inhibition of MT-CO1 expression in human A2780 cells at 100 nM incubated for 12 hrs by RNA sequencing analysis; format: functional, cell-based
A2780 [21] = experiment: Induction of cell cycle arrest in human A2780 cells assessed as accumulation of cells at G1 phase at 100 nM measured after 96 hrs by PI staining based flow cytometry analysis (reference value: 80.81%); format: functional
[22] = MRT in ICR mouse at 1 mg/kg, iv measured upto 24 hrs by LC-MS/MS analysis; format: ADME, organism-based; details: in vivo
A2780 [23] = experiment: Downregulation of UQCR level in human A2780 cells by Western blot analysis; format: functional, cell-based; details: dose <= 500.0 nM
A2780 [24] = experiment: Induction of apoptosis in human A2780 cells assessed as early apoptotic cells at 100 nM incubated for 96 hrs by Annexin-V/FITC and PI staining based flow cytometry analysis (reference value: 14.14%); format: functional
A2780 [25] = experiment: Induction of cell cycle arrest in human A2780 cells assessed as accumulation of cells at S phase at 200 nM measured after 96 hrs by PI staining based flow cytometry analysis (reference value: 14.7%); format: functional
[26] = Solubility in PBS at pH 7.4; format: physicochemical
A2780 [27] = experiment: Antitumor activity against human A2780 cells xenografted in BALB/c nude mouse model assessed as reduction in tumor weight at 50 mg/kg, po administered daily and measured after 27 days relative to control; format: functional; set-up: scale not given: the % may be the effect or the level left; details: time 27 day
A2780 [28] = experiment: Induction of cell cycle arrest in human A2780 cells assessed as accumulation of cells at G1 phase at 200 nM measured after 96 hrs by PI staining based flow cytometry analysis (reference value: 80.81%); format: functional
A2780 [29] = experiment: Effect on 5S mRNA level in human A2780 cells by RT-qPCR analysis; format: functional, cell-based
A2780 [30] = experiment: Downregulation of COX1 level in human A2780 cells by Western blot analysis; format: functional, cell-based; details: dose <= 500.0 nM
Cytochrome P450 3A4 [31] = target: T1, Cytochrome P450 3A4; experiment: Inhibition of […] (unknown origin) using testosterone as substrate in presence of NADPH by LC/MS/MS analysis; format: ADME
A2780 [32] = experiment: Induction of mitochondrial morphological changes in human A2780 cells assessed as change in shape of mitochondria measured after 24 hrs by TEM analysis; format: functional, cell-based
A2780 [33] = experiment: Inhibition of MT-ND2 expression in human A2780 cells at 100 nM incubated for 12 hrs by RNA sequencing analysis; format: functional, cell-based
A2780 [34] = experiment: Inhibition of MT-CO2 expression in human A2780 cells at 100 nM incubated for 12 hrs by RNA sequencing analysis; format: functional, cell-based
A2780 [35] = experiment: Induction of cell cycle arrest in human A2780 cells assessed as accumulation of cells at G2 phase at 100 nM measured after 96 hrs by PI staining based flow cytometry analysis (reference value: 4.49%); format: functional
A2780 [36] = experiment: Inhibition of colony formation in human A2780 cells assessed as reduction in number of colonies at upto 500 nM incubated for 14 days by crystal violet staining based analysis; format: functional, cell-based; details: time 14.0 day
A2780 [37] = experiment: Inhibition of MT-CO3 expression in human A2780 cells at 100 nM incubated for 12 hrs by RNA sequencing analysis; format: functional, cell-based

Cc1ccc(-c2cc(=O)oc3cc(O[C@H](C)C(=O)N4CC5CCC(C4)N5C)ccc23)c(C)c1
IC50 (A549): 721 nM | Activity (A2780 [1]): Active | Activity (A2780 [2]): 4.01% | inhibition (A2780 [3]): Active | inhibition at 0.5 µM [4]: 15% | inhibition (A2780 [5]): Dose-Dependent Effect | IC50 (Cytochrome P450 2C19): 31.5 µM | Activity (A2780 [6]): inactive | Activity (A2780 [7]): 2.22% | inhibition (A2780 [8]): inactive | Activity [9]: Non-Toxic | inhibition (A2780 [10]): Active | IC50 (MDA-MB-231): > 10 µM | bioavailability [11]: 43.2% | Cmax [12]: 364 ng/mL | efflux ratio at 2 h, 3 µM [13]: 1.2 | IC50 (Cytochrome P450 3A4 [14]): > 40 µM | half-life [15]: 187 min | inhibition (A2780 [16]): Active | IC50 (A2780 [17]): 68 nM | inhibition (A2780 [18]): inactive | AUC(0-inf) [19]: 1900 ng·h/mL | IC50 (HeLa): 832 nM | inhibition (A2780 [20]): Active | Activity (A2780 [21]): 87.12% | MRT [22]: 2.66 h | Activity (A2780 [23]): Dose-Dependent Effect | Activity (A2780 [24]): 0.28% | Activity (A2780 [25]): 9.07% | solubility [26]: 226 µg/mL (≈ 506 µM) | Activity (A2780 [27]): 54.82% | Activity (A2780 [28]): 87.77% | Activity (A2780 [29]): inactive | Activity (A2780 [30]): Dose-Dependent Effect | IC50 (Cytochrome P450 3A4 [31]): 30.8 µM | Activity (A2780 [32]): inactive | inhibition (A2780 [33]): Active | inhibition (A2780 [34]): Active | Activity (A2780 [35]): 3.73% | inhibition (A2780 [36]): Active | inhibition (A2780 [37]): Active
